# Laboratory results published in BindingDB's records for doi:10.1016/j.jmb.2006.12.004 (University of Marburg, 2007).
# Biological target: Aldo-keto reductase family 1 member B1 (Homo sapiens, UniProt P15121)
# Experiment: Enzyme Inhibition Assay
# Settings: pH 6.2; 25 °C
# Experimental: The in vitro inhibitory activity of the candidate molecules was determined by recording the decrease of the NADPH absorbance upon enzymatic reduction of […]. The absorbance at 340 nm was monitored with a BMG plate reader. The program GraFit (Version 4.0) was used for fitting the IC50 values.
row,Compound,IC50 [µM]
1,O=C(O)CCCc1nc(-c2cccc([N+](=O)[O-])c2)[n-][o+]1 [Ligand 1],0.53
2,"O=C(O)CCCc1nc(-c2ccccn2)no1 [4-[3-(pyridin-2-yl)-1,2,4-oxadiazol-5-yl]butanoic acid]",12.4
3,"O=C(O)CSc1nnc(-c2ccc([N+](=O)[O-])o2)o1 [2-{[5-(5-nitrofuran-2-yl)-1,3,4-oxadiazol-2-yl]sulfanyl}acetic acid]",4.1
4,O=C(O)CCCc1nc(-c2ccc(Cl)cc2)no1 [Ligand 8],17.7
